Measurements as given in patent publication US10968172B2, “USP30 inhibitors” (Mitobridge, Inc., priority 2017, dated 2021).
pIC50: −log10 of the molar value.

target: USP30 (Homo sapiens (Human), UniProt Q70CQ3); test: In vitro biochemical assay for USP30 enzyme (Ubiquitin-Rhodamine110 cleavage, fluorescence); conditions: 20 nM USP30, 15 min pre-incubation, 100 nM Ub rhodamine substrate, 2 hrs at room temperature
Description: In vitro biochemical assay for USP30 enzyme
The in vitro assay for USP30 evaluates the ability of a test compound to inhibit the activity of the enzyme to cleave ubiquitin from a substrate. Ubiquitin-rhodamine 110 is a quenched, fluorescent substrate for USP30. Cleavage of the amide bond between the C-terminal glycine of ubiquitin and rhodamine results in an increase in rhodamine fluorescence at 535 nm (Exc. 485 nm).
Incubation of the substrate in the presence or absence of USP30 was compared to confirm the deubiquitylating activity of USP30. The USP30 enzyme assay was performed by pre-incubating 20 nM of USP30 with varying concentration of a test compound in the assay buffer [PBS (pH 7.4), 1 mM DTT, 0.01% Tween 20, 0.01% BSA, DMSO final concentration is 1%] for 15 mins at room temperature, following which 100 nM of substrate Ub rhodamine was added and incubated at room temperature for 2 hrs and the plate was read for fluorescence intensity at Ex. 485 nm/535 nm in VICTOR X5 plate reader. The percent inhibition of activity of the enzyme is calculated by comparing counts in the presence and absence of compounds.
Test compounds were screened at various concentrations (10-12 tested concentrations) and dose response curves were generated was generated using GraphPad Prism software Version 7 (San Diego, Calif., USA) with non-linear regression curve fit for sigmoidal dose response (variable slope).

USP30, sequence (Q70CQ3 whole entry): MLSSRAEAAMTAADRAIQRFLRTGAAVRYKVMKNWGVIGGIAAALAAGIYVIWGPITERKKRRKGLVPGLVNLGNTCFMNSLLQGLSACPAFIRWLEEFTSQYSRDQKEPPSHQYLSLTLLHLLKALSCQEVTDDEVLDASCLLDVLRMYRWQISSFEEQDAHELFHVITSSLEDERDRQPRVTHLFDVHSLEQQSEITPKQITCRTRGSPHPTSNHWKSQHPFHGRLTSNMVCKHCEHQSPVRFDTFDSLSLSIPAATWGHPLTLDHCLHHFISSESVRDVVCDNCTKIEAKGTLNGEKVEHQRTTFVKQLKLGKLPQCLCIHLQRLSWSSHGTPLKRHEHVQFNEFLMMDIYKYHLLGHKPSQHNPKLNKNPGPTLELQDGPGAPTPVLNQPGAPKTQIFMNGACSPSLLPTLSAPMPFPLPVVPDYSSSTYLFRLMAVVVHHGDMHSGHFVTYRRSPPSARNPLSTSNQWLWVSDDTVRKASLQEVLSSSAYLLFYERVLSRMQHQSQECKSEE

Q: With `CC(C)(C)NS(=O)(=O)c1cccc2c(NC(=O)[C@@H](Cc3ccccc3)NC(=O)c3ccccc3)cccc12` [Compound 4a, (R)-N-(1-((5-(N-(tert-butyl)sulfamoyl)naphthalen-1-yl)amino)-1-oxo-3-phenylpropan-2-yl)benzamide] as the compound, how does the pIC50 read?
A: 6.61

Q: With `CC(C)(C)NS(=O)(=O)c1cccc2c(NC(=O)[C@H](Cc3ccccc3)NC(=O)c3ccccc3)cccc12` [Compound 4b, (S)—N-(1-((5-(N-(tert-butyl)sulfamoyl)naphthalen-1-yl)amino)-1-oxo-3-phenylpropan-2-yl)benzamide] as the compound, how does the pIC50 read?
A: 6.56

Q: `CC(C)(C)NS(=O)(=O)c1cccc2c(NC(=O)[C@H](Cc3ccccc3)NC(=O)C3CCCCC3)cccc12` [Compound 4c, (S)-N-(1-((5-(N-(tert-butyl)sulfamoyl)naphthalen-1-yl)amino)-1-oxo-3-phenylpropan-2-yl)cyclohexanecarboxamide] was tested. Which pIC50 did it give?
A: 6.90

Q: How did the pIC50 turn out when `CC(C)(C)NS(=O)(=O)c1cccc2c(NC(=O)[C@H](Cc3ccccc3)NC(=O)C3CC3)cccc12` [Compound 4d, (S)-N-(1-((5-(N-(tert-butyl)sulfamoyl)naphthalen-1-yl)amino)-1-oxo-3-phenylpropan-2-yl)cyclopropanecarboxamide] was run?
A: < 5.00

Q: How did the pIC50 turn out when `CC(C)(C)NS(=O)(=O)c1cccc2c(NC(=O)[C@H](Cc3ccccc3)NC(=O)Cc3ccccc3)cccc12` [Compound 4e, (S)-N-(5-(N-(tert-butyl)sulfamoyl)naphthalen-1-yl)-3-phenyl-2-(2-phenylacetamido)propanamide] was run?
A: < 5.00

Q: With `CC(C)(C)NS(=O)(=O)c1cccc2c(NC(=O)[C@H](Cc3ccccc3)NC(=O)CCc3ccccc3)cccc12` [Compound 4f, (S)-N-(5-(N-(tert-butyl)sulfamoyl)naphthalen-1-yl)-3-phenyl-2-(3-phenylpropanamido)propanamide] as the compound, how does the pIC50 read?
A: < 5.00

Q: `CC(C)(C)NS(=O)(=O)c1cccc2c(NC(=O)[C@H](Cc3ccccc3)NC(=O)c3cccs3)cccc12` [Compound 4h, (S)-N-(1-((5-(N-(tert-butyl)sulfamoyl)naphthalen-1-yl)amino)-1-oxo-3-phenylpropan-2-yl)thiophene-2-carboxamide] was tested. Which pIC50 did it give?
A: 5.74

Q: With `Cc1ccc(C(=O)N[C@@H](Cc2ccccc2)C(=O)Nc2cccc3c(S(=O)(=O)NC(C)(C)C)cccc23)cc1` [Compound 4i, (S)-N-(1-((5-(N-(tert-butyl)sulfamoyl)naphthalen-1-yl)amino)-1-oxo-3-phenylpropan-2-yl)-4-methylbenzamide] as the compound, how does the pIC50 read?
A: 5.60

Q: With `CC(C)(C)NS(=O)(=O)c1cccc2c(NC(=O)[C@H](Cc3ccccc3)NC(=O)c3ccc(F)cc3)cccc12` [Compound 4j, (S)-N-(1-((5-(N-(tert-butyl)sulfamoyl)naphthalen-1-yl)amino)-1-oxo-3-phenylpropan-2-yl)-4-fluorobenzamide] as the compound, how does the pIC50 read?
A: 7.31

Q: With `CC(C)(C)NS(=O)(=O)c1cccc2c(NC(=O)[C@H](Cc3ccccc3)NC(=O)C3CCOCC3)cccc12` [Compound 4k, (S)-N-(1-((5-(N-(tert-butyl)sulfamoyl)naphthalen-1-yl)amino)-1-oxo-3-phenylpropan-2-yl)tetrahydro-2H-pyran-4-carboxamide] as the compound, how does the pIC50 read?
A: < 5.00

Q: How did the pIC50 turn out when `CC(C)(C)NS(=O)(=O)c1cccc2c(NC(=O)[C@H](Cc3ccccc3)NC(=O)C3CCCC3)cccc12` [Compound 4l, (S)-N-(1-((5-(N-(tert-butyl)sulfamoyl)naphthalen-1-yl)amino)-1-oxo-3-phenylpropan-2-yl)cyclopentanecarboxamide] was run?
A: 6.44

Q: How did the pIC50 turn out when `Cc1cccc(C(=O)N[C@@H](Cc2ccccc2)C(=O)Nc2cccc3c(S(=O)(=O)NC(C)(C)C)cccc23)n1` [Compound 4m, (S)-N-(1-((5-(N-(tert-butyl)sulfamoyl)naphthalen-1-yl)amino)-1-oxo-3-phenylpropan-2-yl)-6-methylpicolinamide] was run?
A: < 5.00

Q: How did the pIC50 turn out when `CC(C)(C)NS(=O)(=O)c1cccc2c(NC(=O)[C@H](Cc3ccccc3)NC(=O)C3CCC(F)(F)CC3)cccc12` [Compound 4n, (S)—N-(1-((5-(N-(tert-butyl)sulfamoyl)naphthalen-1-yl)amino)-1-oxo-3-phenylpropan-2-yl)-4,4-difluorocyclohexane-1-carboxamide] was run?
A: 7.01

Q: How did the pIC50 turn out when `CC(C)(C)NS(=O)(=O)c1cccc2c(NC(=O)[C@H](Cc3ccccc3)NC(=O)c3ncccn3)cccc12` [Compound 4o, (S)-N-(1-((5-(N-(tert-butyl)sulfamoyl)naphthalen-1-yl)amino)-1-oxo-3-phenylpropan-2-yl)pyrimidine-2-carboxamide] was run?
A: < 5.00

Q: How did the pIC50 turn out when `CC(C)(C)NS(=O)(=O)c1cccc2c(NC(=O)[C@H](Cc3ccccc3)NC(=O)C3CCCCCC3)cccc12` [Compound 4p, (S)-N-(1-((5-(N-(tert-butyl)sulfamoyl)naphthalen-1-yl)amino)-1-oxo-3-phenylpropan-2-yl)cycloheptanecarboxamide] was run?
A: 5.37

Q: With `CC(C)(C)NS(=O)(=O)c1cccc2c(NC(=O)[C@H](Cc3ccccc3)NC(=O)c3nccs3)cccc12` [Compound 4q, (S)-N-(1-((5-(N-(tert-butyl)sulfamoyl)naphthalen-1-yl)amino)-1-oxo-3-phenylpropan-2-yl)thiazole-2-carboxamide] as the compound, how does the pIC50 read?
A: 6.74

Q: How did the pIC50 turn out when `CC(C)(C)NS(=O)(=O)c1cccc2c(NC(=O)[C@H](Cc3ccccc3)NC(=O)c3ccc(C#N)cc3)cccc12` [Compound 4r, (S)-N-(1-((5-(N-(tert-butyl)sulfamoyl)naphthalen-1-yl)amino)-1-oxo-3-phenylpropan-2-yl)-4-cyanobenzamide] was run?
A: 6.57

Q: With `CC(C)(C)NS(=O)(=O)c1cccc2c(NC(=O)[C@H](Cc3ccccc3)NC(=O)C34CC5CC(CC(C5)C3)C4)cccc12` [Compound 4s] as the compound, how does the pIC50 read?
A: < 5.00

Q: `CC1CCC(C(=O)N[C@@H](Cc2ccccc2)C(=O)Nc2cccc3c(S(=O)(=O)NC(C)(C)C)cccc23)CC1` (stereo partly drawn) [Compound 4t, (S)-N-(1-((5-(N-(tert-butyl)sulfamoyl)naphthalen-1-yl)amino)-1-oxo-3-phenylpropan-2-yl)-4-methylcyclohexane-1-carboxamide] was tested. Which pIC50 did it give?
A: < 5.00

Q: `CC(C)(C)NS(=O)(=O)c1cccc2c(NC(=O)[C@H](Cc3ccccc3)NC(=O)C3CCCO3)cccc12` (stereo partly drawn) [Compound 4u, N-((S)-1-((5-(N-(tert-butyl)sulfamoyl)naphthalen-1-yl)amino)-1-oxo-3-phenylpropan-2-yl)tetrahydrofuran-2-carboxamide] was tested. Which pIC50 did it give?
A: < 5.00

Q: With `COc1ccc(C(=O)N[C@@H](Cc2ccccc2)C(=O)Nc2cccc3c(S(=O)(=O)NC(C)(C)C)cccc23)cc1` [Compound 4v, (S)-N-(1-((5-(N-(tert-butyl)sulfamoyl)naphthalen-1-yl)amino)-1-oxo-3-phenylpropan-2-yl)-4-methoxybenzamide] as the compound, how does the pIC50 read?
A: 5.05

Q: With `CC(C)(C)NS(=O)(=O)c1cccc2c(NC(=O)[C@H](Cc3ccccc3)NC(=O)c3ccc(O)cc3)cccc12` [Compound 4w, (S)-N-(1-((5-(N-(tert-butyl)sulfamoyl)naphthalen-1-yl)amino)-1-oxo-3-phenylpropan-2-yl)-4-hydroxybenzamide] as the compound, how does the pIC50 read?
A: < 5.00

Q: How did the pIC50 turn out when `CC(C)(C)NS(=O)(=O)c1cccc2c(NC(=O)[C@H](Cc3ccccc3)NC(=O)c3ccccn3)cccc12` [Compound 4x, (S)-N-(1-((5-(N-(tert-butyl)sulfamoyl)naphthalen-1-yl)amino)-1-oxo-3-phenylpropan-2-yl)picolinamide] was run?
A: 6.77

Q: How did the pIC50 turn out when `CC(C)(C)NS(=O)(=O)c1cccc2c(NC(=O)[C@H](Cc3ccccc3)NC(=O)c3ccc[nH]3)cccc12` [Compound 4y, (S)-N-(1-((5-(N-(tert-butyl)sulfamoyl)naphthalen-1-yl)amino)-1-oxo-3-phenylpropan-2-yl)-1H-pyrrole-2-carboxamide] was run?
A: 5.72

Q: `CC(C)(C)NS(=O)(=O)c1cccc2c(NC(=O)[C@H](Cc3ccccc3)NC(=O)c3ccco3)cccc12` [Compound 4z, (S)-N-(1-((5-(N-(tert-butyl)sulfamoyl)naphthalen-1-yl)amino)-1-oxo-3-phenylpropan-2-yl)furan-2-carboxamide] was tested. Which pIC50 did it give?
A: < 5.00

Q: With `CC(C)C[C@H](NC(=O)c1ccccc1)C(=O)Nc1cccc2c(S(=O)(=O)NC(C)(C)C)cccc12` [Compound 7a, (S)-N-(1-((5-(N-(tert-butyl)sulfamoyl)naphthalen-1-yl)amino)-4-methyl-1-oxopentan-2-yl)benzamide] as the compound, how does the pIC50 read?
A: 5.37

Q: How did the pIC50 turn out when `CC(C)(C)NS(=O)(=O)c1cccc2c(NC(=O)[C@H](Cc3ccc(O)cc3)NC(=O)c3ccccc3)cccc12` [Compound 7b, (S)-N-(1-((5-(N-(tert-butyl)sulfamoyl)naphthalen-1-yl)amino)-3-(4-hydroxyphenyl)-1-oxopropan-2-yl)benzamide] was run?
A: 6.28

Q: With `CC(C)(C)NS(=O)(=O)c1cccc2c(NC(=O)[C@H](CC3CCCCC3)NC(=O)c3ccccc3)cccc12` [Compound 7c, (S)-N-(1-((5-(N-(tert-butyl)sulfamoyl)naphthalen-1-yl)amino)-3-cyclohexyl-1-oxopropan-2-yl)benzamide] as the compound, how does the pIC50 read?
A: 6.18

Q: `CC(C)(C)NS(=O)(=O)c1cccc2c(NC(=O)[C@H](Cc3ccccc3Cl)NC(=O)c3ccccc3)cccc12` [Compound 7d, (S)-N-(1-((5-(N-(tert-butyl)sulfamoyl)naphthalen-1-yl)amino)-3-(2-chlorophenyl)-1-oxopropan-2-yl)benzamide] was tested. Which pIC50 did it give?
A: < 5.00
